# Laboratory results taken from patent US4748161A, “Triterpenyl esters of organic acids and hypolipidemic agents composed of them” (Amano Pharmaceutical Co., Ltd., priority 1984, dated 1988).
# Where two headings read alike, the source gives them in different places.
# How the values were obtained:
# [1] = test system: serum lipids and serum lipid hydroperoxide; assay: Pharmacological test method B for anti-hyperlipidemic activity (serum lipids, 4 weeks feeding); format: in vivo, male Wistar strain rats; design: AI Diff.: unit not given here; settings: for change in vivo at 1 % in diet: Rattus norvegicus, po, 672 h; for HDL-C rise compared with normal diet group: versus normal diet group; for TG % of diff. (Table 20) / TG Diff. (Table 20): Table 20, versus control group
# Experimental: Pharmacological test method B for anti-hyperlipidemic acitivity (the term "method B" was used in the present specification)
# (§1) Male Wistar strain rats (100±1 g, each 8 rats were formed into a group except that the control group fed with a hyperlipidemic diet was formed of 16 rats) were used as test animals. A powdery diet (CE-2, supplied by Clea Japan, Inc.) was used as ordinary diet. The hyperlipidemic diet was prepared by fortifying the ordinary diet with cholesterol (1%) and cholic acid (0.5%). Each test compound (1%) for administration was admixed with the hyperlipidemic diet. Each two rats were kept in a cage and given the prescribed diet and water ad libitum. Thus the rats were fed for 4 weeks at a constant temperature of 23±1° C. and a constant R.H. of 55±5%. Finally, the rats were fasted from food except water for 16 hours (from 4 p.m. of the 28th test day to 8 a.m. of the 29th test day), and under anesthesia with pentbarbital sodium (tradename: Nembutal), blood was taken from each rat through the descending abdominal arota. Then, TC, HDL-C, TG, PL, and LPO in the serum were measured in the following manner.
# A TC kit-K (supplied by Nippon Shoji Kaisha, Ltd.) was used. The principle of this determination is as follows: The ester of cholesterol in the serum is hydrolyzed with cholesterol-ester hydrolase into free cholesterol and fatty acids. All the free cholesterol is oxidized with cholesterol oxydase to form Δ^4 -cholestenone and hydrogen peroxide. Phenol and 4-aminoantipyrin are oxidatively condensed together by the formed hydrogen peroxide and peroxydase. The produced red quinone coloring matter is measured by colorimetry for absorbance at 500 nm using a spectrophotometer, thereby determining the TC:
# The color-developing liquid (3.0 ml) is well mixed with the sample serum (0.02 ml). The mixture once heated at 37° C. for 15 minutes, is measured for absorbance at 500 nm with a spectrophotometer. The found absorbance is denoted by EA. On the other hand, the color-developing liquid (3.0 ml) is well mixed with the standard solution. The mixture is treated and measured for absorbance at 500 nm in the same manner as the above. This found absorbance is denoted by ES. Both EA and ES are determined with reference to the value of the blank test conducted using the color-developing liquid (3.0 ml) alone. [formula]
# An HDL-C kit-N (supplied by Nippon Shoji Kaisha, Ltd.) was used. […] (VLDL) and lo density lipoprotein (LDL) in the serum is precipitated by the action of heparin. The precipitate is separated by centrifugation. High density lipoprotein (HDL) is dissolved in the separated supernatant. Esters of cholesterol in this fraction is hydrolyzed with cholesterol-ester hydrolase into free cholesterol and fatty acids. All the free cholesterol is oxidized with cholesterol oxydase to form Δ^4 -cholestenone and hydrogen peroxide. Phenol and 4-aminoantipyrine are oxidatively condensed together by the formed hydrogen peroxide and peroxydase. The produced red quinone coloring matter is measured by colorimetry for absorbance at 500 nm using a spectrophotometer, thereby determining the HDL-C.
# A PL kit-K (supplied by Nippon Shoji Kaisha, Ltd.) was used for the determination. Lecithin, sphingomyelin, and lysolecithin are decomposed by phospholipase D into choline and phosphatidic acid, N-acylsphingosyl phosphate, or lysophosphatidic acid, respectively. The resulting choline is quantitatively decomposed by choline oxydase into hydrogen peroxide and betaine. With this hydrogen peroxide, and aid of peroxydase, phenol and 4-aminoantipyrin are condensed into red quinone pigment, then the absorbance at 500 nm of which is measured with a spectrophotometer, thereby determining the PL. […]
# [2] = Body weight of rats in method B; design: species or system male Wistar strain rats; settings: rat, in vivo
# Experimental: as §1
# [3] = test system: serum lipids and serum lipid hydroperoxide; assay: Pharmacological test method A for anti-hyperlipidemic activity (serum lipids, 2 weeks feeding); format: in vivo, male Wistar strain rats
# Outline: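 Serum TC, HDL-C (heparin precipitation), PL, TG and LPO measured by colorimetric kits, largely at 500 nm, from abdominal aorta blood after 16 h fasting. Rats (male Wistar, 10/group) ate a cholesterol/cholic acid diet 10 g/day for 2 weeks, supplemented with 1% each of three cycloartane triterpenoids.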
# [4] = 1% in hyperlipidemic diet, 4 weeks
# [5] = versus control group, read-out: AI % of diff.
# [6] = versus control group, read-out: HDL-C % of diff.
# [7] = versus control group, read-out: LPO % of diff.
# [8] = versus control group, read-out: PL % of diff.
# [9] = versus control group, read-out: TG % of diff.
# [10] = 1% in hyperlipidemic diet, 2 weeks
Compound,"change in vivo at 1 % in diet [1, 5] [%]","change in vivo at 1 % in diet [1, 6] [%]","change in vivo at 1 % in diet [1, 7] [%]","change in vivo at 1 % in diet [1, 8] [%]","change in vivo at 1 % in diet [1, 9] [%]",AI Diff. ([1]; versus control group),HDL-C Diff. ([1]; versus control group),LPO Diff. ([1]; versus control group) [nmol/mL],PL Diff. ([1]; versus control group) [mg/dL],TG Diff. ([1]; versus control group) [mg/dL],HDL-C rise compared with normal diet group [1],TG % of diff. (Table 20) [1] [%],TG Diff. (Table 20) [1] [mg/dL],also measured
"C=C(CCC(C)C1CCC2(C)C3CCC4C(C)(C)C(OC(=O)C(C)=Cc5ccc(O)c(OC)c5)CCC45CC35CCC12C)C(C)C (stereo not drawn) [Example 118, 24-methylenecycloartanyl ester of 4-hydroxy-3-methoxy-α-methylcinnamic acid]",-91.9,251,-26.2,-29.8,-9,-19.82,+33.9 mg/dl,-0.74,-41.8,-5.1,remarkable rises,,,"AI [(TC - HDL-C)/(HDL-C)] [1, 4]: 1.943; HDL-C in serum [1, 4]: 47.4 mg/dL; LPO in serum [1, 4]: 2.08 nmol/mL; PL in serum [1, 4]: 98.3 mg/dL; TC in serum [1, 4]: 139.5 mg/dL; TG in serum [1, 4]: 51.4 mg/dL; TC % of diff. ([1]; versus control group): -54.6%; TC Diff. ([1]; versus control group): -168.2 mg/dL; Body weight during feed period, 1st day [2]: 106 ± 3.4 g; Body weight during feed period, 8th day [2]: 147 ± 9.2 g; Body weight during feed period, 15th day [2]: 192 ± 17.8 g; Body weight during feed period, 22nd day [2]: 243 ± 15.4 g; Body weight during feed period, 28th day [2]: 274 ± 18.4 g; Body weight just before blood sampling, 29th day [2]: 259 ± 20.4 g"
"CCC(=O)Oc1ccc(C=C(C)C(=O)OC2CCC34CC35CCC3(C)C(C(C)CCC=C(C)C)CCC3(C)C5CCC4C2(C)C)cc1OC (stereo not drawn) [Example 113, cycloartenyl ester of 3-methoxy-4-propionyloxy-α-methyl cinnamic acid]",-63.5,55.6,-12.1,-29.7,-25.7,-15.96,+8.9 mg/dl,-0.42,-52.5,-20.9,,-39.4,-164.7,
"COc1ccc(N)cc1C(=O)OC1CCC23CC24CCC2(C)C(C(C)CCC=C(C)C)CCC2(C)C4CCC3C1(C)C (centres unmarked) [Example 171, cycloartenyl ester of 5-amino-2-methoxybenzoic acid]",-71.6,51.3,-36,-33,-19.3,-18.02,+8.2 mg/dl,-1.25,-58.4,-15.7,,-53.0,-221.6,
"COc1ccc([N+](=O)[O-])cc1C(=O)OC1CCC23CC24CCC2(C)C(C(C)CCC=C(C)C)CCC2(C)C4CCC3C1(C)C (centres unmarked) [Example 170, cycloartenyl ester of 2-methoxy-5-nitrobenzoic acid]",-74.9,123,-14.1,-28.9,-21.9,-18.83,+19.7 mg/dl,-0.49,-51.1,-17.8,remarkable rises,-37.5,-157.0,
"CCCOc1ccc(N)cc1C=C(C)C(=O)OC1CCC23CC24CCC2(C)C(C(C)CCC=C(C)C)CCC2(C)C4CCC3C1(C)C (stereo not drawn) [Example 195, Cycloartenyl ester of 5-amino-2-propoxy-α-methylcinnamic acid]",-88.3,211,-37.2,-34.2,-28.9,-22.22,+33.7 mg/dl,-1.29,-60.4,-23.5,remarkable rises,-53.3,-223.1,
"C=C(CCC(C)C1CCC2(C)C3CCC4C(C)(C)C(OC(=O)C(C)=Cc5ccc(OC(=O)CC)c(OC)c5)CCC45CC35CCC12C)C(C)C (stereo not drawn) [Example 117, 24-methylenecycloartanyl ester of 3-methoxy-4-propionyloxy-α-methylcinnamic acid]",-64.3,63.1,-24.5,-28.3,-21.6,-16.17,+10.1 mg/dl,-0.85,-50.0,-17.6,,-37.7,-157.9,
"C=C(CCC(C)C1CCC2(C)C3CCC4C(C)(C)C(OC(=O)C(C)=Cc5cccc(N)c5)CCC45CC35CCC12C)C(C)C (stereo not drawn) [Example 213, 24-Methylenecycloartanyl ester of m-amino-α-methylcinnamic acid]",-93,328,-38.9,-34.8,-29.2,-23.38,+52.4 mg/dl,-1.35,-61.5,-23.7,remarkable rises,-54.7,-229.0,
"CCCOc1cc(C=CC(=O)OC2CCC34CC35CCC3(C)C(C(C)CCC=C(C)C)CCC3(C)C5CCC4C2(C)C)ccc1O (centres unmarked) [Example 74, cycloartenyl-4-hydroxy-3-propoxycinnamate]",,,,,,,,,,,,,,"AI [(TC - HDL-C)/(HDL-C)] [3, 10]: 0.787; HDL-C in serum [3, 10]: 92.4 mg/dL; LPO in serum [3, 10]: 2.09 nmol/mL; PL in serum [3, 10]: 162.1 mg/dL; TC in serum [3, 10]: 165.1 mg/dL; TG in serum [3, 10]: 33.1 mg/dL; AI % of diff. ([3]; versus control group): -21.5%; AI Diff. ([3]; versus control group): -0.215; HDL-C % of diff. ([3]; versus control group): -4.0%; HDL-C Diff. ([3]; versus control group): -3.8 mg/dL; LPO % of diff. ([3]; versus control group): -10.4%; LPO Diff. ([3]; versus control group): -0.24 nmol/mL; PL % of diff. ([3]; versus control group): -10.4%; PL Diff. ([3]; versus control group): -18.8 mg/dL; TC % of diff. ([3]; versus control group): 14.3%; TC Diff. ([3]; versus control group): -27.5 mg/dL; TG % of diff. ([3]; versus control group): -0.3%; TG Diff. ([3]; versus control group): -0.1 mg/dL"
"COc1cc(C=CC(=O)OC2CCC34CC35CCC3(C)C(C(C)CCC(C)=C(C)C)CCC3(C)C5CCC4C2(C)C)ccc1N (centres unmarked) [Example 178, Cyclobranyl ester of 4-amino-3-methoxycinnamic acid]",-88.9,215,-36.6,-28.2,-28,-22.35,+34.4 mg/dl,-1.27,-49.8,-22.8,remarkable rises,-54.2,-226.9,
